The results in this text go back to ChEMBL document CHEMBL4680246, “Design, synthesis and biological evaluation of novel O-carbamoyl ferulamide derivatives as multi-target-directed ligands for the treatment of Alzheimer's disease” (Eur J Med Chem, 2020).

The species entered for series [1] is Danio rerio. The series can be described thus: Protection against amyloid beta (1 to 42)-induced zebrafish model of vascular injury assessed as reduction in vascular injury at […] relative to control. In kind it is functional. To be noted: dose 0.11 µg/ml.
Series [2] can be described thus: Acute toxicity in Kunming mouse assessed as dyspnea at 250 to 1000 mg/kg. It is filed as organism-based. The following applies: in vivo, dose 250-1000 mg/kg.
Series [3] can be described thus: Selectivity index, ratio of IC50 for Electrophorus electricus AChE to IC50 for equine serum BuChE.
The nature of series [4]: Toxicity in AlCl3-induced Zebrafish model of Alzheimer's disease assessed as mortality at 100 ug/ml relative to control. Details: species or system Danio rerio. The following applies: in vivo, at 100 µg/mL.
Series [5] has as its target Amyloid-beta precursor protein (Homo sapiens) (UniProt P05067). The series can be described thus: Inhibition of self-induced Amyloid beta (1 to 42 residues) (unknown origin) aggregation at 25 uM measured after 24 hrs by thioflavin T-based fluorimetric assay relative to control.
The species named for series [6] is Danio rerio. The series can be described thus: Antialzheimer activity in AlCl3-induced Zebrafish model of Alzheimer's disease assessed as motility distance at 1 ug/ml (reference value: 5346 mm). It is filed as functional. The following applies: dose 1 µg/ml.

The structures appear in SMILES notation.

Sequence of Amyloid-beta precursor protein (Homo sapiens) (P05067 whole entry, the tested form may be a part): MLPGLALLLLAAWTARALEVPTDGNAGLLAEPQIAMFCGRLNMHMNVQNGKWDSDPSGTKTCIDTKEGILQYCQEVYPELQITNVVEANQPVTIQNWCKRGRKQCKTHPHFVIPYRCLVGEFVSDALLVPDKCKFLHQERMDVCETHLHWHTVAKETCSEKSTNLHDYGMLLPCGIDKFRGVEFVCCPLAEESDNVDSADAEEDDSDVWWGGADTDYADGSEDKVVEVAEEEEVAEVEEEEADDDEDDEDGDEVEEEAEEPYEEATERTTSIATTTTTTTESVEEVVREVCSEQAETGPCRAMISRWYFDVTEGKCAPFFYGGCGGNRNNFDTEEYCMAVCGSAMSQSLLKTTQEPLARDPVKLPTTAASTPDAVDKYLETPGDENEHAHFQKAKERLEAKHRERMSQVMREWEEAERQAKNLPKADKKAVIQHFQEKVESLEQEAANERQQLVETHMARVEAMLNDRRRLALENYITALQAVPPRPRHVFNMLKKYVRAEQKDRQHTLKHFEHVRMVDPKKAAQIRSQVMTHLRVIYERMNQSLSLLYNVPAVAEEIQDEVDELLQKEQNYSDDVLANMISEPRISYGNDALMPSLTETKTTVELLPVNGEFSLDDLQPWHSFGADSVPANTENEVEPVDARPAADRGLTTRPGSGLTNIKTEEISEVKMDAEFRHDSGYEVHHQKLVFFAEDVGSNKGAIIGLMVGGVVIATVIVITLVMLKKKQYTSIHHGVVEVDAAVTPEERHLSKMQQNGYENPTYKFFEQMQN

One may read the mortality as the percentage killed. The inhibition is the share of the control response that was lost under treatment. In the case of `CCN(C)C(=O)Oc1ccc(/C=C/C(=O)N2CCc3ccccc3C2)cc1OC`, the Efficacy in the series filed under Danio rerio [1] was -9.1%. The Activity result in series [2] was “Toxic”; in the series filed under Danio rerio [6], 7024 mm. In addition, the Ratio IC50 in series [3] was 12.3. In series [4], the mortality at 100 ug/ml is 100%. Besides, the inhibition in series [5] was found to be 58.2%.
